For test [1], the target named is T1, human TREX2 (residues M44-A279) (Homo sapiens, UniProt Q9BQ50).
T1 construct: human TREX2 (residues M44-A279, expressed in E. coli); made in house; host or cells: E. coli
T1 sequence (Q9BQ50 44-279 isoform Q9BQ50-1): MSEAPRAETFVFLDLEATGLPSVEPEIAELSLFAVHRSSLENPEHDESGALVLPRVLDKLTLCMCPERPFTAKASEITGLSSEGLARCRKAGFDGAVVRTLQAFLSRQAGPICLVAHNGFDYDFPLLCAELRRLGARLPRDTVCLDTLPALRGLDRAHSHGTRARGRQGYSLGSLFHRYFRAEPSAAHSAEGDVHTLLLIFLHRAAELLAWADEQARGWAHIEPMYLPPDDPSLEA
As to the kind of experiment: TREX2 Biochemical Assay (fluorescence, dsDNA substrate degradation). As to conditions: 2.5 nM TREX2, 60 nM dsDNA substrate, 25 minutes at room temperature. As for the experimental part:
Degradation of the dsDNA liberates free fluorophore to produce a fluorescent signal. Specifically, 7.5 μL of N-terminally His-Tev tagged human TREX2 (residues M44-A279, expressed in E. coli and purified in house) in reaction buffer (50 mM Tris (pH 7.4), 150 mM NaCl, 2 mM DTT, 0.1 mg/mL BSA, 0.01% (v/v) Tween-20 and 100 mM MgCl2) was added to a 384-well Black ProxiPlate Plus (Perkin Elmer) which already contained compound (150 nL) at varying concentrations as a 10 point dose-response in DMSO. To this was added 7.5 μL of dsDNA substrate (Strand A: 5′ TEX615/GCT AGG CAG 3′; Strand B: 5′ CTG CCT AGC/IAbRQSp (IDT)) in reaction buffer. Final concentrations were 2.5 nM TREX2, 60 nM dsDNA substrate in reaction buffer with 1.0% DMSO (v/v). After 25 minutes at room temperature, reactions were quenched by the addition of 5 μL of stop buffer (same as reaction buffer plus 200 mM EDTA). Final concentrations in the quenched reaction mixture were […] TREX2, 45 nM DNA and 50 mM EDTA in a volume of 20 μL. After a 5-minute incubation at room temperature, plates were read in a laser sourced Envision (Perkin-Elmer), measuring fluorescence at 615 nm following excitation w/570 nm light. IC50 values were calculated by comparing the measured fluorescence at 615 nm ratio relative to control wells pre-quenched w/stop buffer (100% inhibition) and no inhibitor (0% inhibition) controls as using non-linear least square four parameter fits and either Genedata or GraphPad Prism (GraphPad Software, Inc.).

Test [2] deals with T2, full length human TREX1 (Homo sapiens, UniProt Q9NSU2).
T2 construct: N-terminally His-Tev tagged full length human TREX1; made in house; host or cells: E. coli
T2 sequence (Q9NSU2 1-314): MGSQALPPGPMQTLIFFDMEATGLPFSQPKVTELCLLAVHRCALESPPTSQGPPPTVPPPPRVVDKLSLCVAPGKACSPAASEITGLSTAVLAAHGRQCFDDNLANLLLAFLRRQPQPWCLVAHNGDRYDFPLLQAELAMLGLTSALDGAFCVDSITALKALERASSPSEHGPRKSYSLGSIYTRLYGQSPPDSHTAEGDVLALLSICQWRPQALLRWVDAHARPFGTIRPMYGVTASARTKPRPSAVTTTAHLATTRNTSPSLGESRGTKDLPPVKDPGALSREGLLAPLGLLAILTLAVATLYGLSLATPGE
Nature of the test: TREX1 Biochemical Assay (fluorescence, dsDNA substrate degradation). As to conditions: 150 pM TREX1, 60 nM dsDNA substrate, 25 minutes at room temperature. As for the experimental part: Degradation of the dsDNA liberates free fluorophore to produce a fluorescent signal. Specifically, 7.5 μL of N-terminally His-Tev tagged full length human TREX1 (expressed in E. coli and purified in house) in reaction buffer (50 mM Tris (pH 7.4), 150 mM NaCl, 2 mM DTT, 0.1 mg/mL BSA, 0.01% (v/v) Tween-20 and 100 mM MgCl2) was added to a 384-well Black ProxiPlate Plus (Perkin Elmer) which already contained compound (150 nL) at varying concentrations as a 10 point dose-response in DMSO. To this was added 7.5 μL of dsDNA substrate (Strand A: 5′ TEX615/GCT AGG CAG 3′; Strand B: 5′ CTG CCT AGC/IAbRQSp (Integrated DNA Technologies)) in reaction buffer. Final concentrations were 150 pM TREX1, 60 nM dsDNA substrate in reaction buffer with 1.0% DMSO (v/v). After 25 minutes at room temperature, reactions were quenched by the addition of 5 μL of stop buffer (same as reaction buffer plus 200 mM EDTA). Final concentrations in the quenched reaction were 112.5 pM TREX1, 45 nM DNA and 50 mM EDTA in a volume of 20 μL. After a 5-minute incubation at room temperature, plates were read in a laser sourced Envision (Perkin-Elmer), measuring fluorescence at 615 nm following excitation w/570 nm light. IC50 values were calculated by comparing the measured fluorescence at 615 nm ratio relative to control wells pre-quenched w/stop buffer (100% inhibition) and no inhibitor (0% inhibition) controls as using non-linear least square four parameter fits and either Genedata or GraphPad Prism (GraphPad Software, Inc.).

Molecules are shown by their SMILES.

In the case of `CN(c1nc(C(=O)Nc2ccc(F)cc2)c(O)c(=O)n1C)[C@H](c1ccccc1)c1ccccc1Cl` (stereo in doubt) [Example 29, 2-(((2-chlorophenyl)(phenyl)methyl)(methyl)amino)-N-(4-fluorophenyl)-5-hydroxy-1-methyl-6-oxo-1,6-dihydropyrimidine-4-carboxamide], the 50% inhibitory concentration (IC50) in test [1] was below 1 µM; in test [2] it was 0.1 to 1 µM.

Consider `CN(c1nc(C(=O)NCC(F)(F)F)c(O)c(=O)n1C)C(c1ccccc1)c1ccccc1` [Example 1, 2-(benzhydryl(methyl)amino)-5-hydroxy-1-methyl-6-oxo-N-(2,2,2-trifluoroethyl)-1,6-dihydropyrimidine-4-carboxamide], for which the IC50 in test [1] lay within 10 to 100 µM; in test [2], 1 to 10 µM.

Turning to `CN(c1nc(C(=O)NC2CC(F)(F)C2)c(O)c(=O)n1C)C(c1ccccc1)c1ccccc1` [Example 2, 2-(benzhydryl(methyl)amino)-N-(3,3-difluorocyclobutyl)-5-hydroxy-1-methyl-6-oxo-1,6-dihydropyrimidine-4-carboxamide], the values for the IC50 in test [1] and in test [2] were 10 to 100 µM and 1 to 10 µM, respectively.

Turning to `CN(c1nc(C(=O)N[C@H]2CCOC2)c(O)c(=O)n1C)C(c1ccccc1)c1ccccc1` [Example 3, (S)-2-(benzhydryl(methyl)amino)-5-hydroxy-1-methyl-6-oxo-N-(tetrahydrofuran-3-yl)-1,6-dihydropyrimidine-4-carboxamide], the IC50 was 10 to 100 µM in test [1] and above 10 µM in test [2].

With `CN(c1nc(C(=O)N[C@@H]2CCOC2)c(O)c(=O)n1C)C(c1ccccc1)c1ccccc1` [Example 4, (R)-2-(benzhydryl(methyl)amino)-5-hydroxy-1-methyl-6-oxo-N-(tetrahydrofuran-3-yl)-1,6-dihydropyrimidine-4-carboxamide], the results for the 50% inhibitory concentration (IC50) in test [1] and in test [2] were 10 to 100 µM and above 10 µM, respectively.

Turning to `C=C(C)CNC(=O)c1nc(N(C)C(c2ccccc2)c2ccccc2)n(C)c(=O)c1O` [Example 5, 2-(benzhydryl(methyl)amino)-5-hydroxy-1-methyl-N-(2-methylallyl)-6-oxo-1,6-dihydropyrimidine-4-carboxamide], the IC50 in test [1] was in the range of 10 to 100 µM; in test [2], 1 to 10 µM.

As for `CN(c1nc(C(=O)NC2CC=CC2)c(O)c(=O)n1C)C(c1ccccc1)c1ccccc1` [Example 6, 2-(benzhydryl(methyl)amino)-N-(cyclopent-3-en-1-yl)-5-hydroxy-1-methyl-6-oxo-1,6-dihydropyrimidine-4-carboxamide], the IC50 in test [1] lay within 10 to 100 µM; in test [2], 1 to 10 µM.

Regarding `CN(c1nc(C(=O)NC2CCC2)c(O)c(=O)n1C)C(c1ccccc1)c1ccccc1` [Example 7, 2-(benzhydryl(methyl)amino)-N-cyclobutyl-5-hydroxy-1-methyl-6-oxo-1,6-dihydropyrimidine-4-carboxamide], the IC50 is 10 to 100 µM in test [1] and 1 to 10 µM in test [2].

Regarding `C=CCNC(=O)c1nc(N(C)C(c2ccccc2)c2ccccc2)n(C)c(=O)c1O` [Example 8, N-allyl-2-(benzhydryl(methyl)amino)-5-hydroxy-1-methyl-6-oxo-1,6-dihydropyrimidine-4-carboxamide], the IC50 in test [1] and in test [2] was 1 to 10 µM throughout.

On to `CN(c1nc(C(=O)NC2COC2)c(O)c(=O)n1C)C(c1ccccc1)c1ccccc1` [Example 9, 2-(benzhydryl(methyl)amino)-5-hydroxy-1-methyl-N-(oxetan-3-yl)-6-oxo-1,6-dihydropyrimidine-4-carboxamide], for which the IC50 in test [1] was 10 to 100 µM; in test [2], above 10 µM.

For `CCNC(=O)c1nc(N(C)C(c2ccccc2)c2ccccc2)n(C)c(=O)c1O` [Example 10, 2-(benzhydryl(methyl)amino)-N-ethyl-5-hydroxy-1-methyl-6-oxo-1,6-dihydropyrimidine-4-carboxamide], the IC50 in test [1] fell in the range of 10 to 100 µM; in test [2] it was 1 to 10 µM.

Source of the values: US20230167070A1, “MODULATORS OF TREX1” (Constellation Pharmaceuticals, Inc., priority 2020, published 2023).
